In patent US10822346B2, “Meglumine salts of thienopyrimidines” (Cardurion Pharmaceuticals, LLC, priority 2018, dated 2020):

What was measured:
[1] = Solubility in pharmaceutically acceptable formulation; assay type: physicochemical; conditions: in any pharmaceutically acceptable formulation
Excerpt: (§1) Initial studies identified thienopyrimidine carboxylic acids as PDE9 inhibitors which could be used to treat or prevent HF. […] In further studies, the potassium salt was identified as a candidate for formulation because it was soluble, provided high exposure in preclinical toxicology studies, and was relatively easy to scale up. […] Unexpectedly the monohydrate crystalline meglumine salt of the thienopyrimidine compounds afforded the desired properties for a pharmaceutical formulation, as shown in Table 5.

[2] = Hygroscopicity by Dynamic Vapor Sorption; assay type: physicochemical; conditions: for Hygroscopicity: DVS weight gain: Dynamic Vapor Sorption @ 25° C./95% RH
Excerpt: as §1

[3] = Dog pharmacokinetic study; assay type: in vivo, dogs; conditions: for AUClast / Cmax / Tmax: healthy dogs, N = 4 animals/arm, fasted overnight, pentagastrin 30 min prior to dosing, mean plasma profile
Experimental: Healthy dogs were used to study different salt candidates to evaluate the pharmacokinetic profile of each candidate. Six treatment arms were employed:
Animals were fasted overnight with free access to water. Pentagastrin (PG) (6 μg/kg, IM) was administered 30 min prior to dosing. Food was resumed 4 h post dose.

[4] = Exposure in preclinical toxicology studies; conditions: in vivo
Excerpt: as §1

[5] = Solid form stability on drying under vacuum; assay type: physicochemical; conditions: crystalline salts; crystal form after drying
Excerpt: as §1

SMILES	Solubility (in words) [1]	Hygroscopicity: DVS weight gain [2]	AUClast [3]	Cmax [3]	Tmax [3]	Exposure in preclinical toxicology studies (in words) [4]	Stability: Drying under vaccum @50 for 36 hrs [5]	Hygroscopicity (in words) [2]	Pharmacokinetic profile (in words) ([3]; dogs, compared with other salts)	Exposure compared with free acid and potassium salt dosed as solutions (in words) ([3]; dogs, powder in a capsule (PIC))
[K+] [Potassium]	soluble	8-22.5%	966 ng·h/mL	398 ng/mL	1.25 h	high exposure	changes	–	–	–
CNCC(O)C(O)C(O)C(O)CO.Cc1c(C(=O)O)sc2nc(Cc3ccc(Cl)c(Cl)c3)[nH]c(=O)c12.O [compound 4, meglumine 2-(3,4-dichlorobenzyl)-5-methyl-4-oxo-3,4-dihydrothieno[2,3-d]pyrimidine-6-carboxylate monohydrate]	–	0.7%	1008 ng·h/mL	280 ng/mL	1.13 h	–	unchanged	low hygroscopicity	superior pharmacokinetic profile	comparable exposure
Cc1c(C(=O)O)sc2nc(Cc3ccc(Cl)c(Cl)c3)[nH]c(=O)c12.N=C(N)NCCC[C@H](N)C(=O)O [compound 8, arginine 2-(3,4-dichlorobenzyl)-5-methyl-4-oxo-3,4-dihydrothieno[2,3-d]pyrimidine-6-carboxylate]	–	5.9%	705 ng·h/mL	246 ng/mL	1.38 h	–	changes	–	–	–
Cc1c(C(=O)O)sc2nc(Cc3ccc(Cl)c(Cl)c3)[nH]c(=O)c12.NCCCC[C@H](N)C(=O)O [compound 9, lysine 2-(3,4-dichlorobenzyl)-5-methyl-4-oxo-3,4-dihydrothieno[2,3-d]pyrimidine-6-carboxylate]	–	6.4%	495 ng·h/mL	78.4 ng/mL	3.50 h	–	changes	–	–	–
